Data set [1] deals with B/Brisbane/60/2008. Nature of the data set: microbe, parasite or virus in culture. Conditions: Influenza B virus, MDCK, 72 h, read-out: EC50 against B/Brisbane/60/2008.
In data set [2] the test system is A/Victoria/361/2011-like (H3N2). Kind of data set: microbe, parasite or virus in culture. Conditions: Influenza A virus, H3N2, MDCK, 72 h, read-out: EC50 against A/Victoria/361/2011-like (H3N2).
In data set [3] the test system is A/Hong Kong/8/1968 (H3N2). Kind of data set: microbe, parasite or virus in culture. Conditions: Influenza A virus, H3N2, MDCK, 72 h, read-out: EC50 against A/Hong Kong/8/1968 (H3N2).
In data set [4] the test system is A/Seoul/11/1988 (H3N2). Kind of data set: microbe, parasite or virus in culture. Conditions: Influenza A virus, H3N2, MDCK, 72 h, read-out: EC50 against A/Seoul/11/1988 (H3N2).
Data set [5] deals with B/Lee/40. Nature of the data set: microbe, parasite or virus in culture. Conditions: Influenza B virus, MDCK, 72 h, read-out: EC50 against B/Lee/40.
A short description of data set [6]: Cytotoxicity to mock-infected MDCK cells (MTT). Conditions: dog.
Data set [7] concerns A/Perth/16/2009 (H3N2). Nature of the data set: microbe, parasite or virus in culture. Conditions: Influenza A virus, H3N2, MDCK, 72 h, read-out: EC50 against A/Perth/16/2009 (H3N2).
The subject of data set [8] is A/California/7/2009 (H1N1). Kind of data set: microbe, parasite or virus in culture. As to conditions: Influenza A virus, H1N1, MDCK, 72 h, read-out: EC50 against A/California/7/2009 (H1N1).
Data set [9] has as its system A/Brisbane/59/2007 (H1N1).
In data set [10] the test system is A/Brisbane/10/2007 (H3N2). Nature of the data set: microbe, parasite or virus in culture. Conditions: Influenza A virus, H3N2, MDCK, 72 h, read-out: EC50 against A/Brisbane/10/2007 (H3N2).
The test system of data set [11] is A/Puerto Rico/8/1934 (H1N1). Nature of the data set: microbe, parasite or virus in culture. Conditions: Influenza A virus, H1N1, MDCK, 72 h, read-out: EC50 against A/Puerto Rico/8/1934 (H1N1).
Data set [12] has as its system A/Brisbane/59/2007 (H1N1). Nature of the data set: microbe, parasite or virus in culture. Conditions: Influenza A virus, H1N1, MDCK, 72 h, read-out: EC50 against A/Brisbane/59/2007 (H1N1).
The test system of data set [13] is A/Hong Kong/8/1968 (H3N2).
A short description of data set [14]: in vitro. As to conditions: dog.
Data set [15] has as its system A/Puerto Rico/8/1934 (H1N1).
The subject of data set [16] is A/California/7/2009 (H1N1).
In data set [17] the test system is B/Brisbane/60/2008.
Data set [18] deals with A/Brisbane/10/2007 (H3N2).
Data set [19] deals with A/Seoul/11/1988 (H3N2).
For data set [20], the system named is A/Victoria/361/2011-like (H3N2).
Data set [21] deals with A/Perth/16/2009 (H3N2).
Data set [22] concerns PR8 virus (viral proteins NP, HA, M1). In kind it is cell-based, influenza A virus.
Data set [23] concerns B/Lee/40.

Counter-ions that a name gives are not always drawn. Like-named read-outs stand apart in the source and are kept apart here.

In the case of `NC12CC3CC(CC(C3)C1)C2` [AMT, amantadine hydrochloride], the EC50 was > 100 µM in [1]; > 100 µM in data set [2]; 0.8 ± 0.1 µM in data set [3]; 0.3 ± 0.1 µM in [4]; > 100 µM in data set [5]; > 100 µM in data set [7]. In addition, the EC50 in [8] was > 100 µM; in data set [10] it was > 100 µM; in [11] it was > 100 µM; in [12] it was 1.2 ± 0.4 µM. In [6], the CC50 at 3 days is > 900 µM. Further, in data set [9] (MDCK cells), the “S.I. (CC50/EC50), A/Brisbane/59/2007 (H1N1)” value was “(>750)”. In addition, the “S.I. (CC50/EC50), A/Hong Kong/8/1968 (H3N2)” value in [13] was “(>1200)”.
As for `CN(C)C(=O)Oc1cc(OC(=O)N(C)C)cc(C(O)CNC(C)(C)C)c1` (stereo not shown) [Bambuterol, bambuterol], the EC50 in data set [3], in data set [5] and in [11] was > 100 µM throughout. In [6], the CC50 at 3 days was > 900 µM.
With `CC(C)(C)NCC(O)c1cc(Cl)c(N)c(Cl)c1` (stereo not shown) [Clenbuterol, clenbuterol], the EC50 in data set [1], in [2], in data set [3], in data set [4], in data set [5] and in data set [7] was > 100 µM each time. The EC50 in data set [8] was 13.7 ± 3.6 µM; in data set [10], > 100 µM; in data set [11] it was 9.4 ± 4.6 µM; in data set [12], 12.9 ± 0.3 µM. Moreover, the CC50 in [14] is > 900 µM. For the same compound, the “S.I. (CC50/EC50), A/Puerto Rico/8/1934 (H1N1)” value in data set [15] (MDCK cells) is “(>96.3)”. Further, in data set [9] (MDCK cells), the “S.I. (CC50/EC50), A/Brisbane/59/2007 (H1N1)” value is “(>69.8)”. For the same compound, the “S.I. (CC50/EC50), A/California/7/2009 (H1N1)” value in [16] (MDCK cells) is reported as “(>65.9)”.
For `OC(CN1CCC(Cc2ccc(F)cc2)CC1)c1ccc(Cl)cc1` (stereo not shown) [Eliprodil, eliprodil], the EC50 in [1] was > 100 µM; in [2] it was > 100 µM; in data set [3], > 44 µM; in data set [4] it was > 100 µM; in [5] it was > 100 µM; in data set [7] it was > 100 µM. Besides, the EC50 in [8] is > 100 µM; in [10], > 100 µM; in data set [11], > 100 µM; in data set [12] it was 53.1 ± 0.3 µM; in [13] (read-out: EC50 against A/Hong Kong/8/1968 (H3N2)), 58.1 ± 6.4 µM. For the same compound, the CC50 at 3 days in [6] was > 900 µM. Moreover, the “S.I. (CC50/EC50), A/Brisbane/59/2007 (H1N1)” value in [9] (MDCK cells) is on record as “(>16.9)”. Further, in data set [13], the “S.I. (CC50/EC50), A/Hong Kong/8/1968 (H3N2)” value is on record as “(>15.5)”.
For the compound `CC(Cc1ccc(O)cc1)NCC(O)c1cc(O)cc(O)c1` (stereo not shown) [Fenoterol, fenoterol], in data set [14], the CC50 was > 900 µM. Also, the EC50 in data set [3], in [5] and in data set [11] was > 100 µM in each case.
In the case of `CC(C(O)c1ccc(O)cc1)N1CCC(Cc2ccccc2)CC1` (stereo not shown) [Ifenprodil, ifenprodil], the EC50 in data set [1] is > 100 µM; in data set [2] it was > 100 µM; in [3], 16.9 ± 3 µM; in [4] it was 37.9 ± 7.7 µM; in data set [5], > 100 µM; in data set [7], > 100 µM. Besides, the EC50 was 1.1 ± 0.1 µM in data set [8], > 100 µM in [10], 6.6 ± 0.4 µM in data set [11] and 5.1 ± 0.3 µM in [12]. Further, the “S.I. (CC50/EC50), A/Puerto Rico/8/1934 (H1N1)” value in data set [15] (MDCK cells) is on record as “(74.0)”. This compound registered a CC50 at 3 days in data set [6] of 488.2 ± 0.5 µM. In [9] (MDCK cells), the “S.I. (CC50/EC50), A/Brisbane/59/2007 (H1N1)” value is on record as “(96.7)”. The “S.I. (CC50/EC50), A/California/7/2009 (H1N1)” value in data set [16] (MDCK cells) is “(465.0)”. The “S.I. (CC50/EC50), A/Hong Kong/8/1968 (H3N2)” value in data set [13] is “(29.0)”.
As to `CC(CCc1ccccc1)NCC(O)c1ccc(O)c(C(N)=O)c1` (stereo not shown) [Labetalol, labetalol], the EC50 in data set [1] is > 100 µM; in [2], > 100 µM; in data set [3], 44 ± 9.7 µM; in data set [4] it was > 100 µM; in data set [5], > 100 µM; in [7], > 100 µM. The EC50 in data set [8], in [10], in data set [11] and in data set [12] was > 100 µM each time. In data set [6], this compound had a CC50 at 3 days of 498.1 ± 0.5 µM. For the same compound, the “S.I. (CC50/EC50), A/Hong Kong/8/1968 (H3N2)” value in data set [13] was “(>11.3)”.
In the case of `CCC(CC)O[C@@H]1C=C(C(=O)O)C[C@H](N)[C@H]1NC(C)=O` [OSV-C, oseltamivir carboxylate], the EC50 in data set [1] was 53.1 ± 25.2 µM; in [2], < 0.005 µM; in data set [3], < 0.005 µM; in data set [4] it was < 0.005 µM; in data set [5], 0.8 ± 0.03 µM; in data set [7], 0.03 ± 0.02 µM. Moreover, the EC50 came out at 0.02 µM in [8], 0.53 ± 0.16 µM in [10], 0.04 ± 0.01 µM in data set [11] and 0.02 µM in data set [12]. The “S.I. (CC50/EC50), B/Brisbane/60/2008” value in [17] (MDCK cells) is on record as “(>17.0)”. Also, the “S.I. (CC50/EC50), A/Brisbane/10/2007 (H3N2)” value in data set [18] is “(>1714)”. Besides, the CC50 at 3 days in data set [14] is > 900 µM. Further, the “S.I. (CC50/EC50), A/Puerto Rico/8/1934 (H1N1)” value in data set [15] (MDCK cells) was “(>25,714)”. Moreover, in [19] (MDCK cells), the “S.I. (CC50/EC50), A/Seoul/11/1988 (H3N2)” value was “(>180,000)”. The “S.I. (CC50/EC50), A/Brisbane/59/2007 (H1N1)” value in data set [9] (MDCK cells) is recorded as “(>58,065)”. Besides, in [20] (MDCK cells), the “S.I. (CC50/EC50), A/Victoria/361/2011-like (H3N2)” value is listed as “(>180,000)”. Moreover, in data set [21] (MDCK cells), the “S.I. (CC50/EC50), A/Perth/16/2009 (H3N2)” value is recorded as “(>30,000)”. Also, the “S.I. (CC50/EC50), A/California/7/2009 (H1N1)” value in [16] (MDCK cells) is on record as “(>58,065)”. Besides, in data set [22] ([…], nylidrin 100 μM, OSV-C 10 μM, RBV 100 μM), the “viral proteins NP, HA and M1 (western blot)” value is listed as “not detected”. Moreover, in [23], the “S.I. (CC50/EC50), B/Lee/40” value is reported as “(>1125)”. The “S.I. (CC50/EC50), A/Hong Kong/8/1968 (H3N2)” value in data set [13] is listed as “(>180,000)”.
Turning to `NC(=O)c1ncn([C@@H]2O[C@H](CO)[C@@H](O)[C@H]2O)n1` [RBV, ribavirin], the EC50 in [1] turned out to be 25.6 ± 0.3 µM; in [2], 33.4 ± 8.8 µM; in data set [3], 15.7 ± 2.7 µM; in data set [4], 10.5 ± 4.2 µM; in [5], 13.8 ± 0.2 µM; in [7], 33.8 ± 11.6 µM. Further, the EC50 stood at 52.5 ± 1.5 µM in data set [8], 12.6 ± 6.4 µM in data set [10], 18.4 ± 3.4 µM in data set [11] and 24.1 ± 0.5 µM in data set [12]. The “S.I. (CC50/EC50), B/Brisbane/60/2008” value in data set [17] is given as “(>35.2)”. The “S.I. (CC50/EC50), A/Brisbane/10/2007 (H3N2)” value in data set [18] is on record as “(>71.4)”. Moreover, the “S.I. (CC50/EC50), A/Puerto Rico/8/1934 (H1N1)” value in [15] was “(>48.9)”. For the same compound, the CC50 at 3 days in [6] is > 900 µM. Also, the “S.I. (CC50/EC50), A/Seoul/11/1988 (H3N2)” value in data set [19] is “(>52.3)”. Moreover, in data set [9], the “S.I. (CC50/EC50), A/Brisbane/59/2007 (H1N1)” value is “(>37.3)”. Moreover, the “S.I. (CC50/EC50), A/Victoria/361/2011-like (H3N2)” value in data set [20] is “(>16.4)”. For the same compound, the “S.I. (CC50/EC50), A/Perth/16/2009 (H3N2)” value in data set [21] is reported as “(>26.6)”. For the same compound, the “S.I. (CC50/EC50), A/California/7/2009 (H1N1)” value in data set [16] is recorded as “(>17.2)”. In addition, in data set [22], the “viral proteins NP, HA and M1 (western blot)” value is given as “not detected”. Further, the “S.I. (CC50/EC50), B/Lee/40” value in [23] is reported as “(>65.5)”. The “S.I. (CC50/EC50), A/Hong Kong/8/1968 (H3N2)” value in data set [13] is “(>57.5)”.
Take `CC(NCCc1ccc(O)cc1)C(O)c1ccc(O)cc1` (stereo not shown) [Ritodrine, ritodrine]: the EC50 in data set [3], in data set [5] and in data set [11] was > 100 µM each time. The CC50 at 3 days in data set [6] was > 900 µM.
